# Source: PMC7717492 (Science translational medicine, 2019)
# Entries after “also recorded” stand apart in the source; their conditions may differ.
# Tests used:
# CDK11B = CDK11B (Homo sapiens, UniProt P21127); test: Binding of OTS964 to different CDKs
# [1] = test system: CDK11B G579S / G579A cancer cells; test: Viability of CDK11B xDFG mutant cancer cells in OTS964; type: cell-based, human
# multiple cancer types = test: OTS964 potency in cancer cell lines
# [2] = test system: A375 cells expressing H2B-mCherry; test: Mitotic progression after release from double-thymidine block into OTS964; type: cell-based, human
# TOV-21G HDAC6-KO cells = test: Drug sensitivity of HDAC6-KO ovarian cancer cells; type: cell-based, human; conditions: ARID1A-mutant ovarian cancer cell line
# [3] = test system: MAPK14/p38α knockout clones; test: Sensitivity of MAPK14/p38α knockout clones to chemotherapy agents; type: cell-based, human; conditions: multiple cell lines
# [4] = test system: Rosa26 and PAK4-KO melanoma cells; test: 7-point dose-response of Rosa26 and PAK4-KO cells with PF-3758309; type: cell-based; conditions: Homo sapiens, A-375
# HDAC6 knockout clones = test: Sensitivity of HDAC6 knockout clones to chemotherapy agents; type: cell-based, human; conditions: HDAC6 knockout versus control clones
# [5] = test system: OTS964-resistant HCT116 clones; test: Paclitaxel sensitivity of OTS964-resistant clones; conditions: HCT116 clones resistant to OTS964
# FKBP12 KO clones = test: Rapamycin sensitivity of FKBP12 knockout clones; type: cell-based
# HDAC6-KO HAP1 cells = conditions: cited from earlier work
# [6] = test system: MELK-knockout (KO) cancer cells; conditions: cited from earlier work
# p53 knockout cells = test: Nutlin-3a sensitivity after p53 knockout; type: cell-based
# MCF7 cells = conditions: caspase 3-deficient breast cancer cell line; cited from earlier work
# CASP3-KO lines = test: Dose-response of Rosa26 and CASP3-KO cells with putative caspase-3 activators; type: cell-based, human; conditions: four different cell lines incl. A375 and HCT116
# MPS1 mutant cells = type: cell-based; conditions: CRISPR-mediated HDR knock-in
# CDK11B, sequence (P21127 whole entry): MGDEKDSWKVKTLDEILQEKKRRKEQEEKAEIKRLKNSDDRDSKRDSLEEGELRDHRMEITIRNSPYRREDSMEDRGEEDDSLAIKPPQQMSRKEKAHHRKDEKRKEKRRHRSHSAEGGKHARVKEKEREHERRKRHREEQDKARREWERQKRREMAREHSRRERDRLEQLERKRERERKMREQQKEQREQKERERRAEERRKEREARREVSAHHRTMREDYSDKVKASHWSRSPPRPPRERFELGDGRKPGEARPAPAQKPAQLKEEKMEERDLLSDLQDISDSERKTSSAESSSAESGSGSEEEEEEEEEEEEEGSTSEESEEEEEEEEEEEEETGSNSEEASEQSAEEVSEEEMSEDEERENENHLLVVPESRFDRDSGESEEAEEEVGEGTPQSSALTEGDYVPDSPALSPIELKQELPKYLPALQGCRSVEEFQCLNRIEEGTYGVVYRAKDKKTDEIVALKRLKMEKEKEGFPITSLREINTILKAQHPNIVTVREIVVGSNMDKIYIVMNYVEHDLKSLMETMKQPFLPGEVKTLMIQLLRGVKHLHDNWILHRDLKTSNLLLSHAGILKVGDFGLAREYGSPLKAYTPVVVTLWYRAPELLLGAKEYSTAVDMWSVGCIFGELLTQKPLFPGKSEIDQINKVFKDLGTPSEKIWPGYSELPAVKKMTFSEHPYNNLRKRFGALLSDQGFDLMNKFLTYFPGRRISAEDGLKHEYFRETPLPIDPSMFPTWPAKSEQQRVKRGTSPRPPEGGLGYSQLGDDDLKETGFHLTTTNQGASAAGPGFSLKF
structure (smiles),measurement,setting,value
Cc1cc(O)c(-c2ccc(C(C)CN(C)C)cc2)c2c1[nH]c(=O)c1sccc12 (stereo not drawn) [OTS964],Kd,CDK11B,40 nM
same,effect of CDK11B xDFG Gly→Ser (G579S) mutation on viability in drug,"[1]; A375, A2780, DLD1 and MDA-MB-231 cells, lethal concentration of OTS964",sufficient to restore viability
same,effect of alanine substitution at CDK11B residue 579 on drug efficacy,[1]; CDK11B residue 579 alanine substitution,sufficient to decrease the efficacy
same,potency,multiple cancer types,nanomolar potency
same,effect of G579S substitution on mitotic entry and progression in drug,"[2]; A375 cells with CDK11B G579S, lethal concentration of OTS964",rescued normal mitotic entry and progression
same,effect on DNA replication,"[2]; arrested cells: 4C DNA content, no 53BP1-foci",did not perturb DNA replication
same,effect on cell cycle,"[2]; lethal concentration of OTS964, release from double-thymidine block",arrested in G2
same,effect on mitotic progression,"[2]; low concentration of OTS964, release from double-thymidine block",delayed nuclear envelope breakdown and progressed slowly through mitosis
O=C(CCCCCCNC(=O)c1cnc(N(c2ccccc2)c2ccccc2Cl)nc1)NO [citarinostat],sensitivity of TOV-21G HDAC6-KO cells,TOV-21G HDAC6-KO cells,remained sensitive
Nc1ccn([C@@H]2O[C@H](CO)[C@@H](O)C2(F)F)c(=O)n1 [gemcitabine],sensitivity of MAPK14/p38α knockout clones versus Rosa26 control clones,[3],as sensitive
Cc1nc(Nc2[nH]nc3c2CN(C(=O)N[C@H](CN(C)C)c2ccccc2)C3(C)C)c2sccc2n1 [PF-3758309],GI50,[4],~9 nM
N.N.O=C([O-])C1(C(=O)[O-])CCC1.[Pt+2] [carboplatin],sensitivity of MAPK14/p38α knockout clones versus Rosa26 control clones,[3],as sensitive
CC(=O)O[C@H]1C(=O)[C@@]2(C)[C@H]([C@H](OC(=O)c3ccccc3)[C@]3(O)C[C@H](OC(=O)[C@H](O)[C@@H](NC(=O)c4ccccc4)c4ccccc4)C(C)=C1C3(C)C)[C@]1(OC(C)=O)CO[C@@H]1C[C@@H]2O [paclitaxel],effect of loss of HDAC6 on drug sensitivity,HDAC6 knockout clones,failed to sensitize
same,sensitivity of OTS964-resistant clones,[5],remained sensitive
CO[C@H]1C[C@@H]2CC[C@@H](C)[C@@](O)(O2)C(=O)C(=O)N2CCCC[C@H]2C(=O)O[C@H]([C@H](C)C[C@@H]2CC[C@@H](O)[C@H](OC)C2)CC(=O)[C@H](C)/C=C(\C)[C@@H](O)[C@@H](OC)C(=O)[C@H](C)C[C@H](C)/C=C/C=C/C=C/1C [rapamycin],effect of FKBP12 knockout on drug sensitivity,FKBP12 KO clones,increased resistance
CC(C)C[C@H](NC(=O)[C@H](Cc1ccccc1)NC(=O)c1cnccn1)B(O)O [bortezomib],sensitivity of MAPK14/p38α knockout clones versus Rosa26 control clones,[3],as sensitive
O=C(CCCCCCNC(=O)c1cnc(N(c2ccccc2)c2ccccc2)nc1)NO [ricolinostat],sensitivity of TOV-21G HDAC6-KO cells,TOV-21G HDAC6-KO cells,remained sensitive
same,killing of HDAC6-KO HAP1 cells,HDAC6-KO HAP1 cells,continued to kill; also recorded: kills
CC(=O)c1cnc2ccc(-c3cc(Cl)c(O)c(Cl)c3)nc2c1N[C@H]1CC[C@H](CN(C)C)CC1 [OTS167],killing of MELK-KO cancer cells,[6],no decrease in potency
COc1ccc(C2=N[C@@H](c3ccc(Cl)cc3)[C@@H](c3ccc(Cl)cc3)N2C(=O)N2CCNC(=O)C2)c(OC(C)C)c1 [nutlin-3a],effect of p53 knockout on drug sensitivity,p53 knockout cells,conferred resistance
C=CCc1cccc(/C=N/NC(=O)CN2CCN(Cc3ccccc3)CC2)c1O [PAC-1],IC50 value in MCF7 cells compared to caspase 3-expressing cell lines,MCF7 cells,higher
same,sensitivity of CASP3-KO lines compared to Rosa26 controls,CASP3-KO lines,identical sensitivity
COc1cc(OC2CCN(C)CC2)ccc1Nc1ncc2c(n1)n(C1CCCC1)c(=O)n2C [AZ3146],effect of MPS1 kinase domain missense mutation on drug sensitivity,MPS1 mutant cells,capable of granting resistance
Cn1nnc2c(C(N)=O)ncn2c1=O [temozolomide],sensitivity of MAPK14/p38α knockout clones versus Rosa26 control clones,[3],as sensitive
